According to EP0654042B1, “AMYLIN MUTEINS” (PFIZER INC., priority 1992, dated 1998):
Bridge positions count the residues as written; N and C are the ends. Ends that are not written are not given here.

Tests used:
muscle or muscle cells = assay: suppression of insulin action (insulin action suppressing activity); conditions: qualitative statement; no data or test conditions printed
Source text: The phrase "insulin action suppressing activity", as used throughout this Specification and the appendant claims, includes, but is not limited to, the ability of a polypeptide of this invention to suppress the effect which insulin has upon muscle or muscle cells. By way of example and not of limitation, the polypeptides of this invention suppress insulin-stimulated glycogen synthesis in muscle or muscle cells.

isolated soleus muscle = conditions: Leighton et al. 1988, Cooper et al. 1988; cited from earlier work

Row | Substance | suppress insulin action (muscle or muscle cells) | insulin-stimulated glycogen synthesis (isolated soleus muscle)
1 | Bolton-Hunter derivative of amylin: Bolton-Hunter derivative of amylin of the drawn formula wherein W is SEQUENCE ID NO:1 (KCNTATCATQRLANFLVHSSNNFGAILSSTNVGSNTY; not fully specified (C-terminus, bridges); cysteine pairing not given here; also: Bolton-Hunter reagent derivative, attachment site not given here; UniProt P10997 34-70, looked up) | will not suppress insulin action | –
2 | amylin: 37 amino acid polypeptide with a disulfide bond between Cys 2 and 7; secretory product of pancreatic β cells (KCNTATCATQRLANFLVHSSNNFGAILSSTNVGSNTY; disulfide 2-7; not fully specified (C-terminus); UniProt P10997 34-70, looked up) | – | suppresses insulin-stimulated glycogen synthesis
